Target: Abelson kinase 2 (ABL2) (Homo sapiens, UniProt P42684)
Assay: Eurofins Arg (ABL2) Human TK Kinase Binding Assay

Sequence of Abelson kinase 2 (ABL2) (P42684 whole entry): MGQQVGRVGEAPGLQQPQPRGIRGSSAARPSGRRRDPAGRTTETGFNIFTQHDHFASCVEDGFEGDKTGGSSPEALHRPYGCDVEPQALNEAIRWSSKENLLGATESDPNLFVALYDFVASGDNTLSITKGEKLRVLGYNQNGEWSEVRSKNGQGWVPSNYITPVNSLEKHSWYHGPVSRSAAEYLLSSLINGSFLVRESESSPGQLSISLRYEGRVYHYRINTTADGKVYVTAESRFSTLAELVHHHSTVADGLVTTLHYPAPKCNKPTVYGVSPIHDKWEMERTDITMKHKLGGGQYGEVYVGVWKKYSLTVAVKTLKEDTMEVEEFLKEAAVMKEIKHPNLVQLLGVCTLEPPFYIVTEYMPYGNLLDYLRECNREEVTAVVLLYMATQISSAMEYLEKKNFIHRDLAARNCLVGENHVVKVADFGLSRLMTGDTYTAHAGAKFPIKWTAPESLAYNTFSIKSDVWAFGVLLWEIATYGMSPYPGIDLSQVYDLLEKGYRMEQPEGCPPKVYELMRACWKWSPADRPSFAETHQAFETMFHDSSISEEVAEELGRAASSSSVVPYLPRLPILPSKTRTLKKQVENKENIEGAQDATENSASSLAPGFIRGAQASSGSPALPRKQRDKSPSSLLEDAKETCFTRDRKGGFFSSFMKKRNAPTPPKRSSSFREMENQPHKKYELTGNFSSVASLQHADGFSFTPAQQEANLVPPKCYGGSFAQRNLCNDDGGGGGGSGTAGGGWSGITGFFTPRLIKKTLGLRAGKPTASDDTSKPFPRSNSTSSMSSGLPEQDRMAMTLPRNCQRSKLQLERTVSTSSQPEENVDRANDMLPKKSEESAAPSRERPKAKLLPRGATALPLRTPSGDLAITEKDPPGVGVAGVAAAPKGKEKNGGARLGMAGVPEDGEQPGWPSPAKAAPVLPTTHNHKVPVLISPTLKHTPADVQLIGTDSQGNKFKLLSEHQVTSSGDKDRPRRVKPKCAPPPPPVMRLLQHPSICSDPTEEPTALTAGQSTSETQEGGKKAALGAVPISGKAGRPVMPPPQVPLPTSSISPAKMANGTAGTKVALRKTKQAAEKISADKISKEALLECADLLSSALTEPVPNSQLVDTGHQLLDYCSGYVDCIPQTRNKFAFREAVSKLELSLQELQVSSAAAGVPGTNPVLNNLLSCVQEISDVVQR

| SMILES | Kd [nM] |
| --- | --- |
| Cc1cc(Nc2ncc3cc(-c4c(Cl)cccc4Cl)c(=O)oc3n2)ccc1F [Compound 12a, 2-(4-Fluoro-3-methylphenylamino)-6-(2,6-dichlorophenyl)-7H-pyrano[2,3-d]pyrimidin-7-one] | 3.9 |
| CSc1cccc(Nc2ncc3cc(-c4c(Cl)cccc4Cl)c(=O)oc3n2)c1 [Compound 12b, 2-(3-(Methylthio)phenylamino)-6-(2,6-dichlorophenyl)-7H-pyrano[2,3-d]pyrimidin-7-one] | 3.8 |
| Nc1cccc(Nc2ncc3cc(-c4c(Cl)cccc4Cl)c(=O)oc3n2)c1 [Compound 12c, 2-(3-Aminophenylamino)-6-(2,6-dichlorophenyl)-7H-pyrano[2,3-d]pyrimidin-7-one] | 1.1 |
| N#Cc1cccc(Nc2ncc3cc(-c4c(Cl)cccc4Cl)c(=O)oc3n2)c1 [Compound 12d, 3-(6-(2,6-Dichlorophenyl)-7-oxo-7H-pyrano[2,3-d]pyrimidin-2-ylamino)benzonitrile] | 4.5 |

More lines, now with the values ahead:

| Kd [nM] | SMILES |
| --- | --- |
| 1.3 | COc1cccc(Nc2ncc3cc(-c4c(Cl)cccc4Cl)c(=O)oc3n2)c1 [Compound 12e, 6-(2,6-Dichlorophenyl)-2-(3-methoxyphenylamino)-7H-pyrano[2,3-d]pyrimidin-7-one] |
| 6.9 | CN(C)c1ccc(Nc2ncc3cc(-c4c(Cl)cccc4Cl)c(=O)oc3n2)cc1 [Compound 12f, 6-(2,6-Dichlorophenyl)-2-(4-(dimethylamino)phenylamino)-7H-pyrano[2,3-d]pyrimidine-7-one] |
| 1.1 | CC(=O)Nc1cccc(Nc2ncc3cc(-c4c(Cl)cccc4Cl)c(=O)oc3n2)c1 [Compound 12g, N-(3-(6-(2,6-Dichlorophenyl)-7-oxo-7H-pyrano[2,3-d]pyrimidine-2-ylamino)-phenyl)-acetamide] |
| 1.3 | Cc1cccc(C)c1-c1cc2cnc(Nc3cccc(N)c3)nc2oc1=O [Compound 19a, 2-(3-Aminophenylamino)-6-(2,6-dimethylphenyl)-7H-pyrano[2,3-d]pyrimidine-7-one] |
| 1.3 | CC(=O)Nc1cccc(Nc2ncc3cc(-c4c(C)cccc4C)c(=O)oc3n2)c1 [Compound 19b, N-(3-(6-(2,6-Dimethylphenyl)-7-oxo-7H-pyrano[2,3-d]pyrimidine-2-ylamino)phenyl)-acetamide] |
| 130 | Nc1cccc(Nc2ncc3cc(-c4ccccc4)c(=O)oc3n2)c1 [Compound 19c, 2-(3-Aminophenylamino)-6-phenyl-7H-pyrano[2,3-d]pyrimidin-7-one] |

Source: patent US20220096485A1, “FUNCTIONALIZED PYRANO[2,3-D]PYRIMIDIN-7-ONE DERIVATIVES AND METHODS FOR THEIR PREPARATION AND USE” (The Texas A&M University System, priority 2016, published 2022)
